# Measurements reported in US11395857B2, “Radiolabeled melanocortin 1 receptor-specific alpha-melanocyte-stimulating hormone analogues for imaging or therapy” (PROVINCIAL HEALTH SERVICES AUTHORITY, priority 2018, dated 2022).
# What was measured:
# in vivo = conditions: male, NRG (NOD.Cg-Rag1tm1Mom Il2rgtm1Wjl/SzJ), mouse, total radioactivity
# Method: (§1) The SK-MEL-1 human melanoma cell line (HTB-67) was obtained commercially from ATCC. SK-MEL-1 cells were cultured in Eagle's Minimum Essential Medium (StemCell Technologies) under the same conditions as described in Example 1. Immunodeficient NOD.Cg-Rag1tm1Mom I12rgtm1Wjl/SzJ (NRG) male mice were obtained from an in-house breeding colony at the BC Cancer Research Centre. For tumor implantation, male NRG mice were anesthetized by inhalation with 2% isoflurane, and 5 million SK-MEL-1 cells were inoculated subcutaneously on the right dorsal flank. Mice were used for imaging or biodistribution studies when the tumors reached 6-8 mm in diameter in 16-20 days.
# (§2) Biodistribution studies were performed as described in Example 3.
# SK-MEL-1 human melanoma [1] = experiment: Radioligand therapy of SK-MEL-1 human melanoma-bearing mice; format: in vivo, NRG mice; conditions: radiotherapy group, 26.7±3.6 MBq/mouse
# Method: For radioligand therapy, SK-MEL-1 human melanoma-bearing mice were injected with saline (control group, n=5), non-radioactive lutetium coupled CCZ01158 (cold std, n=4), and [^177Lu]Lu-CCZ01158 (26.7±3.6 MBq/mouse, n=4). Tumour size and body weight were measured every 2-4 days from the date of injection. Endpoint was defined as >15% weight loss, ulceration of tumours, or tumour volume >1000 mm^3 (Volume=width×width×length/2, measured with calliper). […] This confirms the effectiveness of the ^177Lu radiotherapy with CCZ01158 as the melanoma targeting molecule. […] All mice were euthanized when the tumours reached over 1000 mm^3, except for one mouse due to weight loss in the saline group, and one mouse due to tumour ulceration in the cold std group.
# [2] = Biodistribution of 177Lu-labeled αMSH analogues in mice bearing SK-MEL-1 human melanoma; conditions: male, mouse, total radioactivity
# Method: as §1, §2
# SK-MEL-1 human melanoma [3] = experiment: as above; conditions: compared to the other two analogues
# Method: as §1, §2
# [4] = NRG (NOD.Cg-Rag1tm1Mom I12rgtm1Wjl/SzJ), fat, iv
# [5] = NRG (NOD.Cg-Rag1tm1Mom I12rgtm1Wjl/SzJ), seminal glands, iv
# [6] = NRG (NOD.Cg-Rag1tm1Mom Il2rgtm1Wjl/SzJ), SK-MEL-1 tumour
# [7] = NRG (NOD.Cg-Rag1tm1Mom Il2rgtm1Wjl/SzJ), adrenal glands
# [8] = NRG (NOD.Cg-Rag1tm1Mom Il2rgtm1Wjl/SzJ), blood
# [9] = NRG (NOD.Cg-Rag1tm1Mom Il2rgtm1Wjl/SzJ), bone
# [10] = NRG (NOD.Cg-Rag1tm1Mom Il2rgtm1Wjl/SzJ), brain
# [11] = NRG (NOD.Cg-Rag1tm1Mom Il2rgtm1Wjl/SzJ), heart
# [12] = NRG (NOD.Cg-Rag1tm1Mom Il2rgtm1Wjl/SzJ), intestine
# [13] = NRG (NOD.Cg-Rag1tm1Mom Il2rgtm1Wjl/SzJ), kidneys
# [14] = NRG (NOD.Cg-Rag1tm1Mom Il2rgtm1Wjl/SzJ), liver
# [15] = NRG (NOD.Cg-Rag1tm1Mom Il2rgtm1Wjl/SzJ), lungs
# [16] = NRG (NOD.Cg-Rag1tm1Mom Il2rgtm1Wjl/SzJ), muscle
# [17] = NRG (NOD.Cg-Rag1tm1Mom Il2rgtm1Wjl/SzJ), pancreas
# [18] = NRG (NOD.Cg-Rag1tm1Mom Il2rgtm1Wjl/SzJ), spleen
# [19] = NRG (NOD.Cg-Rag1tm1Mom Il2rgtm1Wjl/SzJ), stomach
# [20] = NRG (NOD.Cg-Rag1tm1Mom Il2rgtm1Wjl/SzJ), testes
# [21] = NRG (NOD.Cg-Rag1tm1Mom Il2rgtm1Wjl/SzJ), thyroid
# [22] = NRG (NOD.Cg-Rag1tm1Mom Il2rgtm1Wjl/SzJ), urine
smiles,measurement,setting,value
"CCCC[C@H](NC(=O)CN1CCC(NC(=O)[C@H](CCCCNC(=O)CN2CCN(CC(=O)O)CCN(CC(=O)O)CCN(CC(=O)O)CC2)NC(=O)CNC(=O)CCCc2ccc(-c3ccc(C)cc3)cc2)CC1)C(=O)N[C@H]1CC(=O)NCCCC[C@@H](C(N)=O)N(C)C(=O)[C@H](Cc2c[nH]c3ccccc23)NC(=O)[C@H](CCCNC(=N)N)N(C)C(=O)[C@@H](Cc2ccccc2)NC(=O)[C@H](Cc2c[nH]cn2)NC1=O [^177Lu-labeled CCZ01158, metal not drawn]",tissue to tissue ratio at 1 h,in vivo; Tumour/blood,0.69 ± 0.08
same,tissue to tissue ratio at 4 h,in vivo; Tumour/blood,2.24 ± 0.36
same,tissue to tissue ratio at 24 h,in vivo; Tumour/blood,62.8 ± 26.4
same,tissue to tissue ratio at 120 h,in vivo; Tumour/blood,436 ± 64.7
same,tissue to tissue ratio at 1 h,in vivo; Tumour/muscle,7.99 ± 1.03
same,tissue to tissue ratio at 4 h,in vivo; Tumour/muscle,23.6 ± 4.32
same,tissue to tissue ratio at 24 h,in vivo; Tumour/muscle,245 ± 48
same,tissue to tissue ratio at 120 h,in vivo; Tumour/muscle,394 ± 42.9
same,Adverse effects,SK-MEL-1 human melanoma [1],No obvious adverse effects were observed
same,tissue uptake at 1 h,[2]; [4],2.24 ± 0.49 %ID/g
same,tissue uptake at 4 h,[2]; [4],1.85 ± 0.53 %ID/g
same,tissue uptake at 24 h,[2]; [4],0.3 ± 0.07 %ID/g
same,tissue uptake at 120 h,[2]; [4],0.2 ± 0.08 %ID/g
same,tissue uptake at 1 h,[2]; [5],1.8 ± 0.79 %ID/g
same,tissue uptake at 4 h,[2]; [5],0.79 ± 0.13 %ID/g
same,tissue uptake at 24 h,[2]; [5],0.15 ± 0.07 %ID/g
same,tissue uptake at 120 h,[2]; [5],0.11 ± 0.06 %ID/g
same,tissue uptake at 1 h,[2]; [6],13.3 ± 2.94 %ID/g
same,tissue uptake at 4 h,[2]; [6],24.3 ± 5.04 %ID/g
same,tissue uptake at 24 h,[2]; [6],29.7 ± 4.29 %ID/g
same,tissue uptake at 120 h,[2]; [6],19.3 ± 7.95 %ID/g
same,tissue uptake at 1 h,[2]; [7],5.1 ± 1.69 %ID/g
same,tissue uptake at 4 h,[2]; [7],3.54 ± 1.01 %ID/g
same,tissue uptake at 24 h,[2]; [7],1.68 ± 0.93 %ID/g
same,tissue uptake at 120 h,[2]; [7],1.36 ± 1.56 %ID/g
same,tissue uptake at 1 h,[2]; [8],19.1 ± 3.57 %ID/g
same,tissue uptake at 4 h,[2]; [8],10.8 ± 0.87 %ID/g
same,tissue uptake at 24 h,[2]; [8],0.54 ± 0.24 %ID/g
same,tissue uptake at 120 h,[2]; [8],0.04 ± 0.01 %ID/g
same,tissue uptake at 1 h,[2]; [9],1.36 ± 0.32 %ID/g
same,tissue uptake at 4 h,[2]; [9],0.8 ± 0.24 %ID/g
same,tissue uptake at 24 h,[2]; [9],0.24 ± 0.15 %ID/g
same,tissue uptake at 120 h,[2]; [9],0.23 ± 0.09 %ID/g
same,tissue uptake at 1 h,[2]; [10],0.33 ± 0.1 %ID/g
same,tissue uptake at 4 h,[2]; [10],0.2 ± 0.01 %ID/g
same,tissue uptake at 24 h,[2]; [10],0.04 ± 0.02 %ID/g
same,tissue uptake at 120 h,[2]; [10],0.03 ± 0.02 %ID/g
same,tissue uptake at 1 h,[2]; [11],4.7 ± 0.7 %ID/g
same,tissue uptake at 4 h,[2]; [11],2.84 ± 0.4 %ID/g
same,tissue uptake at 24 h,[2]; [11],0.5 ± 0.2 %ID/g
same,tissue uptake at 120 h,[2]; [11],0.3 ± 0.13 %ID/g
same,tissue uptake at 1 h,[2]; [12],2.07 ± 0.42 %ID/g
same,tissue uptake at 4 h,[2]; [12],1.32 ± 0.2 %ID/g
same,tissue uptake at 24 h,[2]; [12],0.51 ± 0.52 %ID/g
same,tissue uptake at 120 h,[2]; [12],0.28 ± 0.11 %ID/g
same,tissue uptake at 1 h,[2]; [13],11.3 ± 2.81 %ID/g
same,tissue uptake at 4 h,[2]; [13],11.3 ± 1.38 %ID/g
same,tissue uptake at 24 h,[2]; [13],8.29 ± 1.94 %ID/g
same,tissue uptake at 120 h,[2]; [13],3.26 ± 1.6 %ID/g
same,tissue uptake at 1 h,[2]; [14],7.24 ± 2.38 %ID/g
same,tissue uptake at 4 h,[2]; [14],6.37 ± 1.33 %ID/g
same,tissue uptake at 24 h,[2]; [14],4.45 ± 2.6 %ID/g
same,tissue uptake at 120 h,[2]; [14],3.85 ± 1.63 %ID/g
same,tissue uptake at 1 h,[2]; [15],11.2 ± 2.91 %ID/g
same,tissue uptake at 4 h,[2]; [15],6.81 ± 1.45 %ID/g
same,tissue uptake at 24 h,[2]; [15],1.55 ± 1.22 %ID/g
same,tissue uptake at 120 h,[2]; [15],2.15 ± 2.57 %ID/g
same,tissue uptake at 1 h,[2]; [16],1.67 ± 0.35 %ID/g
same,tissue uptake at 4 h,[2]; [16],1.03 ± 0.06 %ID/g
same,tissue uptake at 24 h,[2]; [16],0.13 ± 0.04 %ID/g
same,tissue uptake at 120 h,[2]; [16],0.05 ± 0.02 %ID/g
same,tissue uptake at 1 h,[2]; [17],1.87 ± 0.3 %ID/g
same,tissue uptake at 4 h,[2]; [17],1.22 ± 0.08 %ID/g
same,tissue uptake at 24 h,[2]; [17],0.27 ± 0.13 %ID/g
same,tissue uptake at 120 h,[2]; [17],0.16 ± 0.07 %ID/g
same,tissue uptake at 1 h,[2]; [18],3.9 ± 1.66 %ID/g
same,tissue uptake at 4 h,[2]; [18],2.5 ± 0.5 %ID/g
same,tissue uptake at 24 h,[2]; [18],1.89 ± 0.85 %ID/g
same,tissue uptake at 120 h,[2]; [18],4.6 ± 3.88 %ID/g
same,tissue uptake at 1 h,[2]; [19],0.85 ± 0.29 %ID/g
same,tissue uptake at 4 h,[2]; [19],0.66 ± 0.12 %ID/g
same,tissue uptake at 24 h,[2]; [19],1.07 ± 1.42 %ID/g
same,tissue uptake at 120 h,[2]; [19],1.24 ± 0.65 %ID/g
same,tissue uptake at 1 h,[2]; [20],2.99 ± 0.56 %ID/g
same,tissue uptake at 4 h,[2]; [20],2.8 ± 0.12 %ID/g
same,tissue uptake at 24 h,[2]; [20],0.92 ± 0.26 %ID/g
same,tissue uptake at 120 h,[2]; [20],0.56 ± 0.25 %ID/g
same,tissue uptake at 1 h,[2]; [21],5.57 ± 0.79 %ID/g
same,tissue uptake at 4 h,[2]; [21],5.74 ± 0.74 %ID/g
same,tissue uptake at 24 h,[2]; [21],5.04 ± 1.22 %ID/g
same,tissue uptake at 120 h,[2]; [21],5.4 ± 2.58 %ID/g
same,tissue to tissue ratio at 1 h,"[2]; NRG (NOD.Cg-Rag1tm1Mom Il2rgtm1Wjl/SzJ), tumour/kidney, 1 h p.i., NRG mice, SK-MEL-1 melanoma",1.18 ± 0.11
same,tissue to tissue ratio at 4 h,"[2]; NRG (NOD.Cg-Rag1tm1Mom Il2rgtm1Wjl/SzJ), tumour/kidney, 4 h p.i., NRG mice, SK-MEL-1 melanoma",2.14 ± 0.26
same,tissue to tissue ratio at 24 h,"[2]; NRG (NOD.Cg-Rag1tm1Mom Il2rgtm1Wjl/SzJ), tumour/kidney, 24 h p.i., NRG mice, SK-MEL-1 melanoma",3.68 ± 0.6
same,tissue to tissue ratio at 120 h,"[2]; NRG (NOD.Cg-Rag1tm1Mom Il2rgtm1Wjl/SzJ), tumour/kidney, 120 h p.i., NRG mice, SK-MEL-1 melanoma",6.17 ± 1.09
same,excreta dose per gram or mL at 1 h,[2]; [22],214 ± 57.6 %ID/g
same,excreta dose per gram or mL at 4 h,[2]; [22],258 ± 66.2 %ID/g
same,excreta dose per gram or mL at 24 h,[2]; [22],21.8 ± 4.6 %ID/g
same,excreta dose per gram or mL at 120 h,[2]; [22],3.56 ± 1.16 %ID/g
same,Overall comparison of tumour uptake and tumour to background contrast,SK-MEL-1 human melanoma [3],"superior due to high and sustained tumour uptake, as well as superior tumour to background contrast"
